From patent US20230348564A1, “ANTI-CANCER PROTEINS” (UNICHEM LABORATORIES LTD, priority 2020, published 2023)

Experiments:
[1] = tested on: PA-1 (Ovary teratocarcinoma); experiment: Xenograft study; type: in vivo, mice; conditions: PA-1 xenograft, IP
Description: (§1) The Xenograft models used were HT-29, KB, PA-1, MCF-7, PANC-1, T24 and MDA-MB-231. The basic study design for the Xenograft study was as follows: • 1. Cell maintenance and cell suspension preparation • 2. Aseptic injection of tumor cell suspension in the donor animal • 3. Randomization of animals in respective groups • 4. IP dosing of test items in predetermined doses • 5. IP administration of standard • 6. After completion of dosing period. • 7. The Tumor volume recording weekly twice while body weight and clinical signs daily.

KB (Cervical cancer) = experiment: Xenograft study; type: in vivo, mice; conditions: IP
Description: as §1

MCF-7 (Breast cancer) = experiment: Xenograft study; type: in vivo, mice; conditions: MCF-7 xenograft, IP
Description: as §1

[2] = tested on: MDA-MB-231 (Mammary gland/breast adenocarcinoma); experiment: Xenograft study; type: in vivo, mice; conditions: MDA-MB-231 xenograft, IP
Description: as §1

[3] = tested on: T24 (Urinary bladder/transitional cell carcinoma); experiment: Xenograft study; type: in vivo, mice; conditions: IP
Description: as §1

Notch-1 = experiment: biomarker levels in IOMM-Lee by ELISA; type: cell-based, Human; conditions: 1 μM
Description: Effect of SEQ ID No 2 on the expression of following 7 biomarkers were estimated in Human Meningioma cell line (IOMM-Lee) using multiplex analysis: TNF-alpha, VEGF, VEGFR2, HGF, HGFR/c-MET, PDGF-BB, and Contactin-1. Levels of another marker, Notch-1 were also estimated by ELISA in the same cell line. These 8 biomarkers play very crucial role in the pathogenesis and progression of Brain Tumor. […] Supernatants were collected and the levels of these 8 markers were investigated.

Glioma (C6) = experiment: cytotoxicity in Brain Tumor Cell lines by MTT assay; type: cell-based, Rat; conditions: 0.1 Mm-100 μM, 72 h
Method: The SEQ ID NO. […] Untreated cells were used as control. […] Cells were incubated for 3 h at 37° C.

PANC-1 = experiment: Annexin-V staining (flow cytometry); type: cell-based, Human; conditions: 24 h
Method: (§2) The cell lines were maintained in DMEM+10% FBS (heat inactivated) at 37° C. with 5% CO2, and 95% humidity. Antibiotics Penicillin (100 U/mL) and Streptomycin (100 μg/mL) were added to the medium.
(§3) The stock solution of recombinant lectin having the amino acid sequence of SEQ ID NO. […] Doxorubicin was used as positive control and stock solution was prepared in DMSO.
(§4) Cells were counted using hemocytometer and plated in culture plates at the density of 0.4×10^6 cells/well in DMEM+10% FBS in 6-well plates. Cells were incubated overnight to allow the cell recovery and exponential growth. Following overnight incubation, cells were treated with Lectin having the amino acid sequence of SEQ ID NO. 2 in DMEM+0% FBS at concentrations ranging from 2.5 μg/mL to 80 μg/mL. Untreated cells were included as Control group for sample. Cells treated with Doxorubicin were included as Positive Control group. DMSO treated cells were included as control group for Doxorubicin. After treatment, cells were incubated for a time period of 24 h.
(§5) Following incubation, the pro-apoptotic effect was estimated using Annexin assay kit as follows: Annexin reagent contains Annexin-V+7-AAD stain, which differentially labels apoptotic cells in different phases. Four populations of cells can be determined from the flow cytometric plots as follows: • a) Upper Left (UL)—7-AAD(+)/Annexin(−) or Necrotic cells • b) Upper Right (UR)—7-AAD(+)/Annexin(+) or Late apoptotic cells • c) Lower Left (LL)—7-AAD(−)/Annexin(−) or Viable/non-apoptotic cells • d) Lower Right (LR)—7-AAD(−)/Annexin(+) or Early apoptotic cells
(§6) Cells were gently harvested into pre-labeled sterile centrifuge tubes and centrifuged at 300×g for 5-7 min. Supernatant were discarded and the pellet was resuspended in 200 μl of fresh culture medium.
(§7) 100 μl of cell suspension was transferred into pre-labeled sterile centrifuge tubes.
(§8) 100 μl of Annexin-V reagent was added to each tube and incubated for 30 min at RT in dark.
(§9) Cells stained for Annexin-V were then transferred into 96-well plates and acquired on flow cytometer (Guava technologies). Percentage of cells in early apoptotic, late apoptotic and necrotic phase were determined.
(§10) Fold increase in apoptotic cells (treated with Test Items) was determined as compared to Control (untreated cells).

MDA-MB-231 = experiment: Annexin-V staining (flow cytometry); type: cell-based, Human; conditions: 24 h
Method: as §2, §3, §4, §5, §6, §7, §8, §9, §10

Structure (SMILES): COc1cccc2c1C(=O)c1c(O)c3c(c(O)c1C2=O)C[C@@](O)(C(=O)CO)C[C@@H]3O[C@H]1C[C@H](N)[C@H](O)[C@H](C)O1 [Doxorubicin, reference compound]
- Maximum Tumor Growth Inhibition (%) [1]: 84.48%
- Tumor Volume (mm^3) (Mean ± SEM) [1]: 631 ± 87 mm^3
- Maximum Tumor Growth Inhibition (%) (KB (Cervical cancer)): 64.60%
- Tumor Volume (mm^3) (Mean ± SEM) (KB (Cervical cancer)): 616 ± 118 mm^3
- Maximum Tumor Growth Inhibition (%) (MCF-7 (Breast cancer)): 65.23%
- Tumor Volume (mm^3) (Mean ± SEM) (MCF-7 (Breast cancer)): 771 ± 65 mm^3
- Maximum Tumor Growth Inhibition (%) [2]: 42.12%
- Tumor Volume (mm^3) (Mean ± SEM) [2]: 808.47 ± 178.59 mm^3
- Maximum Tumor Growth Inhibition (%) [3]: 59.07%
- Tumor Volume (mm^3) (Mean ± SEM) [3]: 366.32 ± 34.28 mm^3
- Percentage inhibition on levels of Notch-1 (Notch-1): 8%
- % of cytotoxicity (Glioma (C6)): 57.8%-86.3%
- % Population of cells, LL Annex− 7AAD− Viable (PANC-1; 10 μM): 25.6%
- % Population of cells, LR Annex+ 7AAD− Early apoptotic (PANC-1; 10 μM): 6.0%
- % Population of cells, UL Annex− 7AAD+ Necrotic (PANC-1; 10 μM): 0.5%
- % Population of cells, UR Annex+ 7AAD+ Late apoptotic (PANC-1; 10 μM): 67.9%
- % Population of cells, LL Annex− 7AAD− Viable (PANC-1; 100 μM): 1.3%
- % Population of cells, LR Annex+ 7AAD− Early apoptotic (PANC-1; 100 μM): 1.9%
- % Population of cells, UL Annex− 7AAD+ Necrotic (PANC-1; 100 μM): 0.1%
- % Population of cells, UR Annex+ 7AAD+ Late apoptotic (PANC-1; 100 μM): 96.6%
- % Population of cells, LL Annex− 7AAD− Viable (MDA-MB-231; 10 μM): 0.7%
- % Population of cells, LR Annex+ 7AAD− Early apoptotic (MDA-MB-231; 10 μM): 6.8%
- % Population of cells, UL Annex− 7AAD+ Necrotic (MDA-MB-231; 10 μM): 0.0%
- % Population of cells, UR Annex+ 7AAD+ Late apoptotic (MDA-MB-231; 10 μM): 92.5%
- % Population of cells, LL Annex− 7AAD− Viable (MDA-MB-231; 100 μM): 0.0%
- % Population of cells, LR Annex+ 7AAD− Early apoptotic (MDA-MB-231; 100 μM): 0.0%
- % Population of cells, UL Annex− 7AAD+ Necrotic (MDA-MB-231; 100 μM): 0.0%
- % Population of cells, UR Annex+ 7AAD+ Late apoptotic (MDA-MB-231; 100 μM): 100.0%
